Reference: patent US20250027050A1, “LONG-TERM CULTURE OF COLORECTAL EPITHELIAL CELLS” (ISM CO., LTD., priority 2021, published 2025)
Entries after “also recorded” stand apart in the source; their conditions may differ.

Columns and labels:
Format in all cases: cell-based
[1] = test system: Primary human colonic epithelial cells (HCoEpiC); assay: Long-term culture of primary human colonic epithelial cells in the presence of low molecular weight compounds (cell number, morphology); conditions: for cell morphology during long-term culture: 10 μM Y-27632 solely added, after 72 days of culture; for continued growth / long-term culture of colorectal epithelial cells (number of cells): complete medium with 10 μM Y-27632 solely added, culture continued for 72 days, compared with A, C, YA, YC groups
Description: Regarding Primary human colonic epithelial cells (HCoEpiC), Lot No. 17030 was purchased from ScienCell Research Laboratories, Inc. (SCR, Carlsbad, CA, United States) and used. A complete medium containing 5 mL of a colonic epithelial cell growth supplement (CoEpiCGS, SCR) and 5 mL of penicillin/streptomycin (P/S, SCR) added to 500 mL of a colonic epithelial cell medium (CoEpiCM, SCR) as a basal medium was used as a medium. To investigate the effect on release of exosomes, 10 μM Y-27632 (ROCK inhibitor) (Wako), 0.5 μM A-83-01 (ALK5/7/4 selective inhibitor) (Wako), and 3 μM CHIR99021 (GSK-3 inhibitor) (Axon Medchem, Reston, VA) were used. Cells were completely dissolved in a water bath at 37° C. and seeded on 10 mL of the complete medium in a 10-cm dish coated with poly-L-lysine (poly-[…] 2 μg/cm^2, SCR) at 2.5×10^5 cells/dish. On the following day, the medium was replaced with a fresh complete medium. The medium was replaced with a complete medium every 3 or 4 days until 70% confluency was reached and then every other day while 70% to 90% confluency was reached. Cells reaching 90% confluency were removed using a 0.05% trypsin/EDTA solution (T/E, SCR) and seeded onto a 12-well plate (Fisher-brand 12-well tissue culture plate with a flat bottom) at 2×10^4 cells/well. Twenty four hours later, the medium was replaced with a complete medium containing or not containing Y-27632 (10 μM), and thereafter the medium was replaced every other day until 90% confluency was reached. When 90% confluency was reached, the cells were subcultured again, and the above-described procedures were continued for 72 days.

[2] = test system: Primary human colonic epithelial cells (HCoEpiC); assay: Particle diameter and particle number in culture supernatant by NanoSight
Description: (§1) Cells were completely dissolved in a water bath at 37° C. and seeded on 10 mL of the complete medium in a 10-cm dish coated with poly-L-lysine (poly-[…] 2 μg/cm^2, SCR) at 2.5×10^5 cells/dish. On the following day, the medium was replaced with a fresh complete medium. The medium was replaced with a complete medium every 3 or 4 days until 70% confluency was reached and then every other day while 70% to 90% confluency was reached. Cells reaching 90% confluency were removed using a 0.05% trypsin/EDTA solution (T/E, SCR) and seeded onto a 12-well plate (Fisher-brand 12-well tissue culture plate with a flat bottom) at 2×10^4 cells/well. Twenty four hours later, the medium was replaced with a complete medium containing or not containing Y-27632 (10 μM), and thereafter the medium was replaced every other day until 90% confluency was reached. When 90% confluency was reached, the cells were subcultured again, and the above-described procedures were continued for 72 days. The culture supernatant in the culture was recovered, and the particle diameter and the particle number were measured using a nanoparticle analysis system NanoSight (NS300, Malvern Panalytical Ltd.). Then, the signal intensities of exosome markers, CD9 and CD63, in the recovered culture supernatant were measured by an ExoScreen assay.

[3] = test system: Primary human colonic epithelial cells (HCoEpiC); assay: ExoScreen assay of exosome markers CD9 and CD63 in culture supernatant
Description: as §1

## C[C@@H](N)[C@H]1CC[C@H](C(=O)Nc2ccncc2)CC1 [Y-27632, (1R,4r)-4-((R)-1-aminoethyl)-N-(pyridin-4-yl)cyclohexanecarboxamide]
[1]
  cell morphology during long-term culture: the morphology was unchanged
  continued growth / long-term culture of colorectal epithelial cells (number of cells): continued growth over the longest period; also recorded: allowed long-term culture of colorectal epithelial cells
[1]; listed as Y
  cell morphology during long-term culture: no morphological change was observed
  continued growth / long-term culture of colorectal epithelial cells (number of cells): Long-term culture was enabled
[2]; Day 72 of culture, presence vs absence of Y-27632
  particle number concentration in the medium: higher in the absence of Y-27632
[2]; culture supernatants at Day 28, Day 35, Day 72, Y(+) vs Y(−)
  particle diameter of released vesicles: unchanged
[3]; culture supernatant of HCoEpiC cultured in the presence vs absence of Y-27632
  exosomes detected using CD9 and CD63 markers (signal intensity): more exosomes were detected
[3]; in the presence of Y-27632, fraction decreased
  decrease of CD9(+) exosomes after repeated passages: about ⅓
